Laboratory results from ChEMBL document CHEMBL1124019, “Synthesis and anticholinesterase activity of (-)-N1-norphysostigmine, (-)-eseramine, and other N(1)-substituted analogues of (-)-physostigmine” (J Med Chem, 1988).

Molecular target: Acetylcholinesterase (Electrophorus electricus, UniProt O42275)
Sequence (O42275 whole entry): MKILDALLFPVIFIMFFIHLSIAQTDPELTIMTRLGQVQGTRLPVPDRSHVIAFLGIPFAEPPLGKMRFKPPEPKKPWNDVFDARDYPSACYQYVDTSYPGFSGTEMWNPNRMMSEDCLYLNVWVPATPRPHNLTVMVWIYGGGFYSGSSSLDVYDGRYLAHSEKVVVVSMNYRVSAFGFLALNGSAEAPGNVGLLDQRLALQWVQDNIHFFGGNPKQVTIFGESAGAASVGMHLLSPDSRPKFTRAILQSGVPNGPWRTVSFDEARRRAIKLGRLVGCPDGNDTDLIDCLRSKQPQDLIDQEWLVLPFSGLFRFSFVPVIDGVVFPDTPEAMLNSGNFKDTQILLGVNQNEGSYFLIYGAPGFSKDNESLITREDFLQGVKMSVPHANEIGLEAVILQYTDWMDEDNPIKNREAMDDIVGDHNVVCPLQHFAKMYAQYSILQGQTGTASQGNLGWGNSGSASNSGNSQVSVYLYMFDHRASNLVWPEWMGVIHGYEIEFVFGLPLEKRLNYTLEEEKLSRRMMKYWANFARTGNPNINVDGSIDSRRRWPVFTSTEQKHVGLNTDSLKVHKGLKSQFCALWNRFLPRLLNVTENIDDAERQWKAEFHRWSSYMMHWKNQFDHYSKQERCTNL
Description: In vitro inhibitory activity against acetylcholinesterase from electric eel

Row | Compound | IC50 [µM]
1 | CNC(=O)Oc1ccc2c(c1)[C@]1(C)CCN(C(=O)NC)C1N2C (some centres not stated) | 9.3
2 | CN(C)C(=O)Oc1cccc([N+](C)(C)C)c1 [NEOSTIGMINE BROMIDE] | 0.087
